Assay results: US9540392B2, “Thienopyrimidines” (BAYER PHARMA AKTIENGESELLSCHAFT, priority 2012, dated 2017)

Each molecule was assayed against T1, human full-length MKNK1 (Homo sapiens, UniProt Q9BUB5, T385D) (assay: MKNK1 kinase high ATP assay (TR-FRET)). Conditions: 2 mM ATP, after preincubation with MKNK1; read-out: MKNK1 IC50 (MKNK1 high ATP).
T1 construct: GST (N); purchased Carna Biosciences 02-145; host or cells: insect cells (baculovirus expression system)
Format: biochemical
Protocol: MKNK1-inhibitory activity at high ATP of compounds of the present invention after their preincubation with MKNK1 was quantified employing the TR-FRET-based MKNK1 high ATP assay as described in the following paragraphs.
As substrate for the kinase reaction the biotinylated peptide biotin-Ahx-[…] (C-terminus in amide form) was used, which can be purchased e.g. from the company Biosyntan (Berlin-Buch, Germany).
For the assay 50 nL of a 100 fold concentrated solution of the test compound in DMSO was pipetted into a black low volume 384 well microtiter plate (Greiner Bio-One, Frickenhausen, Germany), 2 μL of a solution of MKNK1 in aqueous assay buffer [50 mM HEPES pH 7.5, 5 mM MgCl2, 1.0 mM dithiothreitol, 0.005% (v/v) Nonidet-P40 (Sigma)] was added and the mixture was incubated for 15 min at 22° C. to allow pre-binding of the test compounds to the enzyme before the start of the kinase reaction. Then the kinase reaction was started by the addition of 3 μL of a solution of adenosine-tri-phosphate (ATP, 3.3 mM=>final conc. in the 5 μL assay volume is 2 mM) and substrate (0.1 μM=>final conc. in the 5 μL assay volume is 0.06 μM) in assay buffer and the resulting mixture was incubated for a reaction time of 30 min at 22° C. The concentration of MKNK1 was adjusted depending of the activity of the enzyme lot and was chosen appropriate to have the assay in the linear range, typical concentrations were in the range of 0.003 μg/mL. The reaction was stopped by the addition of 5 μL of a solution of TR-FRET detection reagents (5 nM streptavidine-XL665 [Cisbio Bioassays, Codolet, France] and 1 nM anti-ribosomal protein S6 (pSer236)-antibody from Invitrogen [#44921G] and 1 nM LANCE EU-W1024 Labeled ProteinG [Perkin-Elmer, product no. AD0071]) in an aqueous EDTA-solution (100 mM EDTA, 0.1% (w/v) bovine serum albumin in 50 mM HEPES pH 7.5).
The resulting mixture was incubated for 1 h at 22° C. to allow the formation of complex between the phosphorylated biotinylated peptide and the detection reagents. Subsequently the amount of phosphorylated substrate was evaluated by measurement of the resonance energy transfer from the Eu-chelate to the streptavidine-XL. Therefore, the fluorescence emissions at 620 nm and 665 nm after excitation at 350 nm were measured in a TR-FRET reader, e.g. a Rubystar (BMG Labtechnologies, Offenburg, Germany) or a Viewlux (Perkin-Elmer). The ratio of the emissions at 665 nm and at 622 nm was taken as the measure for the amount of phosphorylated substrate.

T1 sequence (Q9BUB5 1-424 isoform Q9BUB5-2 T344D): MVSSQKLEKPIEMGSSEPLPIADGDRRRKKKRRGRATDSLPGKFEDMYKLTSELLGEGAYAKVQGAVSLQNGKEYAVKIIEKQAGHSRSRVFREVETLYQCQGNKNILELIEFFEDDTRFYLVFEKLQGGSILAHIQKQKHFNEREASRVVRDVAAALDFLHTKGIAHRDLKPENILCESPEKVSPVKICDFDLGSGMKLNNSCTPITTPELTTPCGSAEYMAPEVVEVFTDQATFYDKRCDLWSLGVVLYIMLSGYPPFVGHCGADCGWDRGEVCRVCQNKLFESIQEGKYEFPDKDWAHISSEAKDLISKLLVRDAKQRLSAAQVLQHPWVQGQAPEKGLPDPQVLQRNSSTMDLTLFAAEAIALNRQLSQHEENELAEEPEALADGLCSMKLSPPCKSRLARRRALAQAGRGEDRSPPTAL

Row | IC50 [µM] | Structure (SMILES)
1 | 0.0277 | O=C(Nc1ccccn1)C1CCc2c(sc3ncnc(Nc4ccc5[nH]ncc5c4)c23)C1 (racemic) [Example 99, (RS)-4-(1H-indazol-5-ylamino)-N-(pyridin-2-yl)-5,6,7,8-tetrahydro[1]benzothieno[2,3-d]pyrimidine-7-carboxamide]
2 | 0.0075 | O=C(Nc1cccnc1)C1CCc2c(sc3ncnc(Nc4ccc5[nH]ncc5c4)c23)C1 (racemic) [Example 100, (RS)-4-(1H-indazol-5-ylamino)-N-(pyridin-3-yl)-5,6,7,8-tetrahydro[1]benzothieno[2,3-d]pyrimidine-7-carboxamide]
3 | 0.0047 | CN(Cc1ccccc1)C(=O)C1CCc2c(sc3ncnc(Nc4ccc5[nH]ncc5c4)c23)C1 (racemic) [Example 101, (RS)-N-benzyl-4-(1H-indazol-5-ylamino)-N-methyl-5,6,7,8-tetrahydro[1]benzothieno[2,3-d]pyrimidine-7-carboxamide]
4 | 0.0149 | CC(C)(C)NC(=O)C1CCc2c(sc3ncnc(Nc4ccc5[nH]ncc5c4)c23)C1 (racemic) [Example 102, (RS)-N-tert-butyl-4-(1H-indazol-5-ylamino)-5,6,7,8-tetrahydro[1]benzothieno[2,3-d]pyrimidine-7-carboxamide]
5 | 0.0164 | CCOC(=O)N1CCN(C(=O)C2CCc3c(sc4ncnc(Nc5ccc6[nH]ncc6c5)c34)C2)CC1 (racemic) [Example 103, (RS)-ethyl4-{[4-(1H-indazol-5-ylamino)-5,6,7,8-tetrahydro[1]benzothieno[2,3-d]pyrimidin-7-yl]carbonyl}piperazine-1-carboxylate]
6 | 0.0074 | CC1CCCN(C(=O)C2CCc3c(sc4ncnc(Nc5ccc6[nH]ncc6c5)c34)C2)C1 (racemic) [Example 104, (RS)-[4-(1H-indazol-5-ylamino)-5,6,7,8-tetrahydro[1]benzothieno[2,3-d]pyrimidin-7-yl](3-methylpiperidin-1-yl)methanone]
7 | 0.0168 | CC1CCN(C(=O)C2CCc3c(sc4ncnc(Nc5ccc6[nH]ncc6c5)c34)C2)CC1 (racemic) [Example 105, (RS)-[4-(1H-indazol-5-ylamino)-5,6,7,8-tetrahydro[1]benzothieno[2,3-d]pyrimidin-7-yl](4-methylpiperidin-1-yl)methanone]
8 | 0.0145 | O=C(C1CCc2c(sc3ncnc(Nc4ccc5[nH]ncc5c4)c23)C1)N1CCN(c2ccccc2)CC1 (racemic) [Example 106, (RS)-[4-(1H-indazol-5-ylamino)-5,6,7,8-tetrahydro[1]benzothieno[2,3-d]pyrimidin-7-yl](4-phenylpiperazin-1-yl)methanone]
9 | 0.0081 | COCCN(CCOC)C(=O)C1CCc2c(sc3ncnc(Nc4ccc5[nH]ncc5c4)c23)C1 (racemic) [Example 107, (RS)-4-(1H-indazol-5-ylamino)-N,N-bis(2-methoxyethyl)-5,6,7,8-tetrahydro[1]benzothieno[2,3-d]pyrimidine-7-carboxamide]
10 | 0.012 | O=C(C1CCc2c(sc3ncnc(Nc4ccc5[nH]ncc5c4)c23)C1)N1CCCC(O)C1 (racemic) [Example 108, (RS)-(3-hydroxypiperidin-1-yl)[4-(1H-indazol-5-ylamino)-5,6,7,8-tetrahydro[1]benzothieno[2,3-d]pyrimidin-7-yl]methanone]
11 | 0.008 | CCN(Cc1ccncc1)C(=O)C1CCc2c(sc3ncnc(Nc4ccc5[nH]ncc5c4)c23)C1 (racemic) [Example 109, (RS)-N-ethyl-4-(1H-indazol-5-ylamino)-N-(pyridin-4-ylmethyl)-5,6,7,8-tetrahydro[1]benzothieno[2,3-d]pyrimidine-7-carboxamide]
12 | 0.132 | Cc1ccccc1N1CCN(C(=O)C2CCc3c(sc4ncnc(Nc5ccc6[nH]ncc6c5)c34)C2)CC1 (racemic) [Example 110, (R)S-[4-(1H-indazol-5-ylamino)-5,6,7,8-tetrahydro[1]benzothieno[2,3-d]pyrimidin-7-yl][4-(2-methylphenyl)piperazin-1-yl]methanone]
13 | 0.0247 | Cc1cccc(N2CCN(C(=O)C3CCc4c(sc5ncnc(Nc6ccc7[nH]ncc7c6)c45)C3)CC2)c1 (racemic) [Example 111, (RS)-[4-(1H-indazol-5-ylamino)-5,6,7,8-tetrahydro[1]benzothieno[2,3-d]pyrimidin-7-yl][4-(3-methylphenyl)piperazin-1-yl]methanone]
14 | 0.0094 | O=C(C1CCc2c(sc3ncnc(Nc4ccc5[nH]ncc5c4)c23)C1)N1CCN(c2ccncc2)CC1 (racemic) [Example 112, (RS)-[4-(1H-indazol-5-ylamino)-5,6,7,8-tetrahydro[1]benzothieno[2,3-d]pyrimidin-7-yl][4-(pyridin-4-yl)piperazin-1-yl]methanone]
15 | 0.0204 | CC(C)(C)CNC(=O)C1CCc2c(sc3ncnc(Nc4ccc5[nH]ncc5c4)c23)C1 (racemic) [Example 113, (RS)-N-(2,2-dimethylpropyl)-4-(1H-indazol-5-ylamino)-5,6,7,8-tetrahydro[1]benzothieno[2,3-d]pyrimidine-7-carboxamide]
16 | 0.0125 | O=C(C1CCc2c(sc3ncnc(Nc4ccc5[nH]ncc5c4)c23)C1)N1CCN(c2cnccn2)CC1 (racemic) [Example 114, (RS)-[4-(1H-indazol-5-ylamino)-5,6,7,8-tetrahydro[1]benzothieno[2,3-d]pyrimidin-7-yl][4-(pyrazin-2-yl)piperazin-1-yl]methanone]
17 | 0.0153 | N#Cc1ccccc1N1CCN(C(=O)C2CCc3c(sc4ncnc(Nc5ccc6[nH]ncc6c5)c34)C2)CC1 (racemic) [Example 115, (RS)-2-(4-{[4-(1H-indazol-5-ylamino)-5,6,7,8-tetrahydro[1]benzothieno[2,3-d]pyrimidin-7-yl]carbonyl}piperazin-1-yl)benzonitrile]
18 | 0.0058 | O=C(NCCc1cccs1)C1CCc2c(sc3ncnc(Nc4ccc5[nH]ncc5c4)c23)C1 (racemic) [Example 116, (RS)-4-(1H-indazol-5-ylamino)-N-[2-(thiophen-2-yl)ethyl]-5,6,7,8-tetrahydro[1]benzothieno[2,3-d]pyrimidine-7-carboxamide]
19 | 0.0112 | Cn1nccc1NC(=O)C1CCc2c(sc3ncnc(Nc4ccc5[nH]ncc5c4)c23)C1 (racemic) [Example 117, (RS)-4-(1H-indazol-5-ylamino)-N-(1-methyl-1H-pyrazol-5-yl)-5,6,7,8-tetrahydro[1]benzothieno[2,3-d]pyrimidine-7-carboxamide]
20 | 0.0132 | CN1CCCN(C(=O)C2CCc3c(sc4ncnc(Nc5ccc6[nH]ncc6c5)c34)C2)CC1 (racemic) [Example 118, (RS)-[4-(1H-indazol-5-ylamino)-5,6,7,8-tetrahydro[1]benzothieno[2,3-d]pyrimidin-7-yl](4-methyl-1,4-diazepan-1-yl)methanone]
21 | 0.0159 | CCN1CCN(C(=O)C2CCc3c(sc4ncnc(Nc5ccc6[nH]ncc6c5)c34)C2)CC1 (racemic) [Example 119, (RS)-(4-ethylpiperazin-1-yl)[4-(1H-indazol-5-ylamino)-5,6,7,8-tetrahydro[1]benzothieno[2,3-d]pyrimidin-7-yl]methanone]
22 | 0.0083 | CN(C)C(=O)CN(C)C(=O)C1CCc2c(sc3ncnc(Nc4ccc5[nH]ncc5c4)c23)C1 (racemic) [Example 120, (RS)-N-[2-(dimethylamino)-2-oxoethyl]-4-(1H-indazol-5-ylamino)-N-methyl-5,6,7,8-tetrahydro[1]benzothieno[2,3-d]pyrimidine-7-carboxamide]
23 | 0.004 | NS(=O)(=O)c1ccc(CNC(=O)C2CCc3c(sc4ncnc(Nc5ccc6[nH]ncc6c5)c34)C2)cc1 (racemic) [Example 121, (RS)-4-(1H-indazol-5-ylamino)-N-(4-sulfamoylbenzyl)-5,6,7,8-tetrahydro[1]benzothieno[2,3-d]pyrimidine-7-carboxamide]
24 | 0.0112 | CC(O)CN(C)C(=O)C1CCc2c(sc3ncnc(Nc4ccc5[nH]ncc5c4)c23)C1 (racemic) [Example 122, (RS)-N-(2-hydroxypropyl)-4-(1H-indazol-5-ylamino)-N-methyl-5,6,7,8-tetrahydro[1]benzothieno[2,3-d]pyrimidine-7-carboxamide]
25 | 0.0113 | O=C(NC1CCOCC1)C1CCc2c(sc3ncnc(Nc4ccc5[nH]ncc5c4)c23)C1 (racemic) [Example 123, (RS)-4-(1H-indazol-5-ylamino)-N-(tetrahydro-2H-pyran-4-yl)-5,6,7,8-tetrahydro[1]benzothieno[2,3-d]pyrimidine-7-carboxamide]
